Source: ChEMBL document CHEMBL1909046, “DrugMatrix in vitro pharmacology data”

How the values were obtained:
[1] = biological target: Beta-3 adrenergic receptor (Homo sapiens, UniProt P13945); assay: DRUGMATRIX: Adrenergic beta3 radioligand binding (ligand: [125I] Cyanopindolol); format: cell membranes, HEK293, Membrane; settings: Not Active = under 50% inhibition at 10 µM
[2] = biological target: T1, 5-hydroxytryptamine receptor 2C (Homo sapiens, UniProt P28335); assay: DRUGMATRIX: Serotonin (5-Hydroxytryptamine) 5-HT2C radioligand binding (ligand: [3H] Mesulergine); format: cell membranes, CHO-K1, Membrane; settings: Not Active = under 50% inhibition at 10 µM
T1 sequence (P28335 whole entry): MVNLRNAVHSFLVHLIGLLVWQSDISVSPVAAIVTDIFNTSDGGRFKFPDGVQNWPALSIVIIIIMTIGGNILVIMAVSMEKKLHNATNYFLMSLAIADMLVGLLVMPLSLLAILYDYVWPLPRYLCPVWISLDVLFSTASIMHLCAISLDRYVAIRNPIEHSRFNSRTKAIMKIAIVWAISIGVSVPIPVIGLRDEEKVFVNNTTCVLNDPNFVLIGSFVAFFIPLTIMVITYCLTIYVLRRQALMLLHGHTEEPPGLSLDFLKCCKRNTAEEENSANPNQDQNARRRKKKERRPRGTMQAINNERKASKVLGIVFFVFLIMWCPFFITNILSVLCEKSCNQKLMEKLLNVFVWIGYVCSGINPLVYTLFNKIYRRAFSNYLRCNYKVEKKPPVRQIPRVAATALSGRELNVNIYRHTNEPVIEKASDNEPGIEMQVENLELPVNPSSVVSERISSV

[3] = biological target: Sigma non-opioid intracellular receptor 1 (Homo sapiens, UniProt Q99720); assay: DRUGMATRIX: Sigma1 radioligand binding (ligand: [3H] Haloperidol); format: cell membranes, Jurkat, Membrane; settings: Not Active = under 50% inhibition at 10 µM
Chain of Sigma non-opioid intracellular receptor 1 (Q99720 whole entry): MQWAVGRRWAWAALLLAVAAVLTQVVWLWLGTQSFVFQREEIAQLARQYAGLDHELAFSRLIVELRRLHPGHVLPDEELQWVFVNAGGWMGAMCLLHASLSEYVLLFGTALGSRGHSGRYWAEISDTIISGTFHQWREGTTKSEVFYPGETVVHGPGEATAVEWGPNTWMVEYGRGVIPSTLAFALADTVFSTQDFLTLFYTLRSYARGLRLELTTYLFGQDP

[4] = biological target: Epidermal growth factor receptor (Homo sapiens, UniProt P00533); assay: DRUGMATRIX: Protein Tyrosine Kinase, EGF Receptor enzyme inhibition (substrate: Poly(Glu:Tyr)); format: cell-based, Insect cells; settings: Not Active = under 50% inhibition at 10 µM
[5] = biological target: Receptor tyrosine-protein kinase erbB-2 (Homo sapiens, UniProt P04626); assay: biochemical; format: cell-based, Insect cells;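 further: inhibition of HER2 kinase enzyme activity, measured with Poly(Glu:Tyr) as the phosphorylation substrate; in other assays of this panel Not Active means under 50% inhibition at 10 µM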

Chain of Beta-3 adrenergic receptor (P13945 whole entry): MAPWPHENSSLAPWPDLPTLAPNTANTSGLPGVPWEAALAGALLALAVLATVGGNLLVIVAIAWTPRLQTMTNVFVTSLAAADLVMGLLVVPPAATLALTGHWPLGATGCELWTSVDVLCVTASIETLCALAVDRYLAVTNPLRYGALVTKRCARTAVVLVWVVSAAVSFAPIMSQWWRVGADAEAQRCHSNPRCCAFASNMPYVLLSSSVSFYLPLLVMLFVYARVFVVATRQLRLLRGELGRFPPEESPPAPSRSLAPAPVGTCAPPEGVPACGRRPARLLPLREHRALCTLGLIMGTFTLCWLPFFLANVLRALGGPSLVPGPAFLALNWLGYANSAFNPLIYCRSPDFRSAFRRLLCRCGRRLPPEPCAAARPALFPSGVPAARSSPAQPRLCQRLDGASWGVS

CCCCC(=O)N(Cc1ccc(-c2ccccc2-c2nnn[nH]2)cc1)[C@H](C(=O)O)C(C)C
IC50 ([1]; hek293): Not Active
IC50 ([2]; cho-k1): Not Active
IC50 ([3]; jurkat): Not Active
IC50 ([4]; insect cells): Not Active
IC50 ([5]; insect cells): Not Active

O=C(O)COc1ccc(C(=O)c2cccs2)c(Cl)c1Cl
IC50 ([1]; hek293): Not Active
IC50 ([2]; cho-k1): Not Active
IC50 ([3]; jurkat): Not Active
IC50 ([4]; insect cells): Not Active
IC50 ([5]; insect cells): Not Active

CN1[C@@H]2CC[C@H]1C[C@@H](OC(c1ccccc1)c1ccccc1)C2 [BENZTROPINE]
IC50 ([1]; hek293): Not Active
IC50 ([2]; read-out: IC50): 61 nM
Ki ([2]; read-out: Ki): 32 nM
IC50 ([4]; insect cells): Not Active
IC50 ([5]; insect cells): Not Active

C[C@@](Cc1ccc(O)c(O)c1)(NN)C(=O)O.O [CARBIDOPA]
IC50 ([1]; hek293): Not Active
IC50 ([2]; cho-k1): Not Active
IC50 ([3]; jurkat): Not Active
IC50 ([4]; insect cells): Not Active
IC50 ([5]; insect cells): Not Active

CN1CCN(C2=Nc3cc(Cl)ccc3Nc3ccccc32)CC1 [CLOZAPINE]
IC50 ([1]; hek293): Not Active
IC50 ([3]; jurkat): Not Active
IC50 ([4]; insect cells): Not Active
IC50 ([5]; insect cells): Not Active

CC(C)NC[C@@H](O)COc1cccc2ccccc12 [DEXPROPRANOLOL]
IC50 ([1]; hek293): Not Active
IC50 ([2]; cho-k1): Not Active
IC50 ([3]; read-out: IC50): 3970 nM
Ki ([3]; read-out: Ki): 1670 nM
IC50 ([4]; insect cells): Not Active
IC50 ([5]; insect cells): Not Active

CC(C)NC[C@H](O)COc1cccc2ccccc12 [LEVOPROPRANOLOL]
IC50 ([3]; read-out: IC50): 6660 nM
Ki ([3]; read-out: Ki): 2800 nM
IC50 ([4]; insect cells): Not Active
IC50 ([5]; insect cells): Not Active

O=C(O)CCCCC1CCSS1 (stereo not drawn) [LIPOIC ACID, ALPHA]
IC50 ([1]; hek293): Not Active
IC50 ([2]; cho-k1): Not Active
IC50 ([3]; jurkat): Not Active
IC50 ([4]; insect cells): Not Active
IC50 ([5]; insect cells): Not Active

CN(C)C(=O)C(CCN1CCC(O)(c2ccc(Cl)cc2)CC1)(c1ccccc1)c1ccccc1 [LOPERAMIDE]
IC50 ([2]; cho-k1): Not Active
IC50 ([3]; read-out: IC50): 628 nM
Ki ([3]; read-out: Ki): 264 nM
IC50 ([4]; insect cells): Not Active
IC50 ([5]; insect cells): Not Active

Clc1ccc(COC(Cn2ccnc2)c2ccc(Cl)cc2Cl)c(Cl)c1 (stereo not drawn) [MICONAZOLE]
IC50 ([1]; read-out: IC50): 5480 nM
Ki ([1]; read-out: Ki): 4110 nM
IC50 ([2]; read-out: IC50): 5310 nM
Ki ([2]; read-out: Ki): 2780 nM
IC50 ([3]; jurkat): Not Active
IC50 ([4]; read-out: IC50): 29300 nM
IC50 ([5]; read-out: IC50): 27400 nM

Oc1ccc2c3c1O[C@H]1[C@@H](O)CC[C@@]4(O)[C@@H](C2)N(CC2CCC2)CC[C@]314 [NALBUPHINE]
IC50 ([1]; hek293): Not Active
IC50 ([2]; cho-k1): Not Active
IC50 ([3]; jurkat): Not Active
IC50 ([4]; insect cells): Not Active
IC50 ([5]; insect cells): Not Active

C[C@]12C=CC(=O)C=C1CC[C@@H]1[C@@H]2C(=O)C[C@@]2(C)[C@H]1CC[C@]2(O)C(=O)CO [PREDNISONE]
IC50 ([1]; hek293): Not Active
IC50 ([2]; cho-k1): Not Active
IC50 ([3]; jurkat): Not Active
IC50 ([4]; insect cells): Not Active
IC50 ([5]; insect cells): Not Active

OCCOCCN1CCN(C2=Nc3ccccc3Sc3ccccc32)CC1 [QUETIAPINE]
IC50 ([1]; hek293): Not Active
IC50 ([3]; read-out: IC50): 2290 nM
Ki ([3]; read-out: Ki): 964 nM
IC50 ([4]; insect cells): Not Active
IC50 ([5]; insect cells): Not Active

COC(=O)[C@H]1[C@H]2C[C@@H]3c4[nH]c5cc(OC)ccc5c4CCN3C[C@H]2C[C@@H](OC(=O)c2cc(OC)c(OC)c(OC)c2)[C@@H]1OC [RESERPINE]
IC50 ([1]; hek293): Not Active
IC50 ([2]; cho-k1): Not Active
IC50 ([3]; jurkat): Not Active
IC50 ([4]; insect cells): Not Active
IC50 ([5]; insect cells): Not Active

O=C(O)c1ccccc1O [SALICYLIC ACID]
IC50 ([1]; hek293): Not Active
IC50 ([2]; cho-k1): Not Active
IC50 ([3]; jurkat): Not Active
IC50 ([4]; insect cells): Not Active
IC50 ([5]; insect cells): Not Active

C[S+]([O-])c1ccc(-c2nc(-c3ccncc3)c(-c3ccc(F)cc3)[nH]2)cc1 (stereo not drawn) [SB-203580]
IC50 ([1]; hek293): Not Active
IC50 ([2]; cho-k1): Not Active
IC50 ([3]; jurkat): Not Active

CC1CCC(NC(=O)N(CCCl)N=O)CC1 (stereo not drawn) [SEMUSTINE]
IC50 ([1]; hek293): Not Active
IC50 ([2]; cho-k1): Not Active
IC50 ([3]; jurkat): Not Active
IC50 ([4]; insect cells): Not Active
IC50 ([5]; insect cells): Not Active

O=C1C[C@@H]2OCC=C3CN4CC[C@]56c7ccccc7N1[C@H]5[C@H]2[C@H]3C[C@H]46 [STRYCHNINE]
IC50 ([1]; hek293): Not Active
IC50 ([2]; cho-k1): Not Active
IC50 ([3]; jurkat): Not Active
IC50 ([4]; insect cells): Not Active
IC50 ([5]; insect cells): Not Active

C[N+](C)(C)CCOC(=O)CCC(=O)OCC[N+](C)(C)C.[Cl-].[Cl-] [SUCCINYLCHOLINE CHLORIDE]
IC50 ([1]; hek293): Not Active
IC50 ([2]; cho-k1): Not Active
IC50 ([3]; jurkat): Not Active
IC50 ([4]; insect cells): Not Active
IC50 ([5]; insect cells): Not Active

Nc1ccc(S(=O)(=O)NC(=O)c2ccccc2)cc1 [SULFABENZAMIDE]
IC50 ([1]; hek293): Not Active
IC50 ([2]; cho-k1): Not Active
IC50 ([3]; jurkat): Not Active
IC50 ([4]; insect cells): Not Active
IC50 ([5]; insect cells): Not Active

CCCCCCCCNC(C)C(O)c1ccc(SC(C)C)cc1 (stereo not drawn) [SULOCTIDIL]
IC50 ([2]; cho-k1): Not Active
IC50 ([3]; read-out: IC50): 117 nM
Ki ([3]; read-out: Ki): 49.3 nM
IC50 ([4]; read-out: IC50): 794 nM
IC50 ([5]; insect cells): Not Active

O=c1[nH]c(=O)n(C2CCCO2)cc1F (stereo not drawn) [TEGAFUR]
IC50 ([1]; hek293): Not Active
IC50 ([2]; cho-k1): Not Active
IC50 ([3]; jurkat): Not Active
IC50 ([4]; insect cells): Not Active
IC50 ([5]; insect cells): Not Active

CC(=N)S [THIOACETAMIDE]
IC50 ([1]; hek293): Not Active
IC50 ([2]; cho-k1): Not Active
IC50 ([3]; jurkat): Not Active
IC50 ([4]; insect cells): Not Active
IC50 ([5]; insect cells): Not Active

Cc1ccc(C(=O)c2ccc(CC(=O)O)n2C)cc1 [TOLMETIN]
IC50 ([1]; hek293): Not Active
IC50 ([2]; cho-k1): Not Active
IC50 ([3]; jurkat): Not Active
IC50 ([4]; insect cells): Not Active
IC50 ([5]; insect cells): Not Active

CC(=O)OCC(COC(C)=O)OC(C)=O [TRIACETIN]
IC50 ([1]; hek293): Not Active
IC50 ([2]; cho-k1): Not Active
IC50 ([3]; jurkat): Not Active
IC50 ([4]; insect cells): Not Active
IC50 ([5]; insect cells): Not Active

CN1CCN(CCCN2c3ccccc3Sc3ccc(C(F)(F)F)cc32)CC1 [TRIFLUOPERAZINE]
IC50 ([1]; hek293): Not Active
IC50 ([2]; cho-k1): Not Active
IC50 ([3]; jurkat): Not Active
IC50 ([4]; insect cells): Not Active
IC50 ([5]; insect cells): Not Active

TRANSPLATIN
IC50 ([1]; hek293): Not Active
Ki ([1]; hek293): Not Active
IC50 ([2]; cho-k1): Not Active
Ki ([2]; cho-k1): Not Active
IC50 ([3]; jurkat): Not Active
Ki ([3]; jurkat): Not Active
IC50 ([4]; insect cells, read-out: IC50): 1060 nM
IC50 ([5]; insect cells): Not Active
Ki ([5]; insect cells): Not Active

ZIRCONIUM(IV) CHLORIDE
IC50 ([1]; hek293): Not Active
Ki ([1]; hek293): Not Active
IC50 ([2]; cho-k1): Not Active
Ki ([2]; cho-k1): Not Active
IC50 ([3]; jurkat): Not Active
Ki ([3]; jurkat): Not Active
IC50 ([4]; insect cells): Not Active
Ki ([4]; insect cells): Not Active
IC50 ([5]; insect cells): Not Active
Ki ([5]; insect cells): Not Active
